In patent US20240254132A1, “COMPOUNDS, COMPOSITIONS AND METHODS” (Denali Therapeutics Inc., priority 2021, published 2024):

Tested on: IL-1β secretion, THP-1 cells
Experiment: IL-1β secretion assay in PMA-differentiated THP-1 cells (LPS + nigericin stimulation, IL-1β ELISA)
Type: cell-based
Conditions: Homo sapiens, LPS 25 ng/mL, IL-1β by ELISA
Procedure: Compounds as provided herein were tested in the following assay. Cell culture medium employed contained RPMI 1640 medium (89%), FBS (10%), Pen/Strep (1%), and 2-mercaptoethanol (0.05 mm). Freezing medium was made up of 90% FBS and 10% DMSO. THP-1 cells were removed from the liquid nitrogen and placed into a 37° C. water bath to thaw, until signs of ice dissipated. The cells were then added to 9 mL of warm cell culture medium and centrifuged for 5 minutes at 1000 rpm. The supernatant was discarded, and the cells were resuspended in new cell culture medium. THP-1 cells were then split and cultured in the cell culture medium, being passaged every 2-3 days with the cell density will be maintained between 5×10^5 and 1.5×10^6 viable cells/mL.
Procedure for […], Secretion Assay in 384-Well Plates
PMA was dissolved in DMSO to make a stock solution at 5 mg/mL and stored in 10 μl aliquots at −20° C. for single use. PMA is added to normal growth medium. LPS was diluted with 1 mL of water solution to provide a 1 mg/mL stock solution and stored in 15 μl aliquots at −20° C. for single use. Nigericin is diluted in ice cold 100% ethanol to 5 mg/mL (6.7 mM) and stored in 75 μL aliquots at −20° C. for single use. Serum-free media contains RPMI 1640 medium (99%), Pen/Strep (1%), and 2-mercaptoethanol (0.05 mM). The two control conditions used to qualify and normalize test compound dose-response curves were as follows: High Control=25 ng/mL LPS, 5 μM Nigericin, 0.5% DMSO, Low Control=25 ng/mL, LPS, 0.5% DMSO.
THP-1 cells were diluted to provide a suspension at a concentration of 1.0×10^6 cells/mL with the total volume of suspension required to enable the desired number of assay plates. The growth media was supplemented with PMA (5 ng/mL final concentration) and the cells were incubated at 37° C. under a humidified atmosphere of 5% CO2 for 40 h.
All media was carefully aspirated from each culture flask. The cells were washed carefully with 1×DPBS. The cells were then briefly digested with trypsin LE for 5 minutes at 23° C. and immediately resuspended in cell growth media. After resuspension, the cells were centrifuged at 1000 rpm for 3 minutes and the supernatant was discarded. The cells were resuspended in DPBS and once again centrifuged at 1000 rpm for 5 minutes. The supernatant was discarded and the cell pellet was resuspended in serum-free media supplemented with LPS (25 ng/mL final concentration) to enable the distribution of 30K THP-1 cells within 45 μL of media into each well of 384-well PDL-coated plates. The 384-well plates were then incubated at 37° C. under a humidified atmosphere of 5% CO2 for 2 h. Following this period, test compounds were dispensed by Tecan across the desired concentration range with all wells normalized to a final 0.5% DMSO concentration. The plates were then incubated at 37° C. under a humidified atmosphere of 5% CO2 for 1 h. Following this period, 5 μL of the 5 mg/mL nigericin stock solution was added to each of the appropriate wells and plates were centrifuged at 1000 rpm for 30 seconds. The plates were the immediately reintroduced to the incubator at 37° C. under a humidified atmosphere of 5% CO2 for 2 h. After this time, 35 μL/well of supernatant was collected and transferred into v-bottom plate and centrifuged at 1000 rpm for 1 minute. These supernatant aliquots were analyzed using an IL-Iβ detection kit as described below. If needed, the test samples could be snap frozen and stored at −80° C. until analyzed.
To prepare each ELISA plate, capture antibody (mAb Mt175) was diluted with PBS to a final concentration of 2 μg/mL and then 20 μL of this solution was added to each well of the ELISA plate. Each plate was allowed to incubate overnight at 4° C. The next day, the capture antibody solution was removed and discarded. Each ELISA plate was washed 4 times with PBST followed by the addition of 25 μL/well of blocking buffer (Licor-927-40010) supplemented with 0.1% Tween 20. […]

IC50 (THP-1, class symbol): < 10 µM | IC50 (THP-1, numeric value): 0.184 µM
SMILES: O=C(CN1C(=O)c2ccc(Br)cc2C2(CC2)C1=O)Nc1ncc(F)cn1 [Example 33, 2-(6′-bromo-1′,3′-dioxospiro[cyclopropane-1,4′-isoquinoline]-2′-yl)-N-(5-fluoropyrimidin-2-yl)acetamide]
